Assays:
Listeria innocua = details: Guarda et al., 2011; cited from earlier work
S. cereviciae = details: Guarda et al., 2011; cited from earlier work
S. aureus [1] = test: Minimum inhibitory concentration in liquid culture (serial dilutions, turbidity); format: cell-based, Staphylococcus aureus ATCC 25923; details: 24 h
Procedure: (§1) To evaluate the antimicrobial capacity of the ink prepared from the NQoT dispersion, the minimum concentration that is able to inhibit the visible development of the bacterial strains S. aureus; E. coli; P. aeruginosa; S. typhimurium; E. aerogenes and L. innocua in a liquid culture medium (trypticase soy broth), after 24 h incubation, was determined. Bacterial strains were obtained from an isolated colony on a selective and differential agar plate for each genus, and were inoculated in nutritious broth for 24 h at 37° C. with stirring until obtaining a saturated culture. Then, the desired concentration of microorganisms was determined, in comparison with the standard of McFarland 0.5, and the corresponding dilutions were made in order to reach a concentration of 1×10^5 CFU/ml (colony-forming units/ml). To each culture tube, agents in serial dilutions were added, and incubated at 37° C. for 24 h; then, the lowest concentration of the mixture capable of inhibiting bacterial growth, given by absence of turbidity in the culture medium, was determined. The solutions used to generate the Nps and nanoparticles without T in their formulation (NQo) were used as controls. […]

B. cinerea mycelium = test: Inhibition of Botrytis cinerea mycelium (radial growth on agar); format: cell-based; details: for Radial mycelial growth area: 6 days at 25° C., untreated 8.5 cm^2
Procedure: The antifungal activity of the NQoT dispersion was evaluated by inhibiting the radial development in the fungus mycelial plate, described by Yildirim et al., (2007). For that purpose, a portion of mycelium was sterilely taken, using a punch, from a strain previously cultivated for 5 days at 25° C., which was placed in the center of a potato dextrose agar plate mixed with dilutions of the NQoT dispersion until obtaining in the agar concentrations of 0.44 mg/ml (dispersion diluted to 10% v/v), 1.1 mg/ml (dispersion diluted to 25% v/v) and 2.2 mg/ml (dispersion diluted to 50% v/v). These plates were incubated for 6 days at 25° C., being evaluated every 24 h. The antifungal activity was determined through the mycelium propagation area of the plates containing NQoT, and were compared with agar plates containing T solutions, mixture of QoLMW-T, and the NQo dispersion in the same dilutions, and a culture of the fungus seeded in a plate without treatment, whose propagation on the surface of the plate (8.5 cm2) is equivalent to a 100% development, which was used as a parameter of growth comparison.
On the other hand, the antifungal capacity of the NQoTs confronted to the vegetative form of Botrytis cinerea was tested, wherein the growth inhibition of this fungus' mycelium was assessed, adding diluted concentrations to the culture medium of the NQoT dispersion. The dilutions tested corresponded to 10%, 25% and 50% v/v, and were compared to T's solutions, QoLMW-T mixture, and NQo dispersion in the same dilutions.
It was observed, when the culture medium lacked the solutions or dispersions to be tested (viability control), that the fungus spread over the surface of the plate (8.5 cm^2), equivalent to 100% growth, which was used as a growth comparison parameter.

B. cinerea = test: Minimum inhibitory concentration against the fungus; format: cell-based, Botrytis cinerea wt
E. aerogenes = test: Minimum inhibitory concentration in liquid culture (serial dilutions, turbidity); format: cell-based, Enterobacter aerogenes ATCC 13048; details: 24 h
Procedure: as §1

L. innocua = test: as above; format: cell-based, Listeria innocua ATCC 33090; details: 24 h
Procedure: as §1

S. typhimurium = test: as above; format: cell-based, Salmonella serovar Typhimurium ATCC 14028; details: S. Tiphymurium; 24 h
Procedure: as §1

P. aeruginosa = test: as above; format: cell-based, Pseudomonas aeruginosa ATCC 27853; details: Ps. aeruginosa; 24 h
Procedure: as §1

E. coli [2] = test: as above; format: cell-based, Escherichia coli ATCC 25922; details: 24 h
Procedure: as §1

S. aureus [3] = details: Guarda et al., 2011; cited from earlier work
E. coli [4] = details: Guarda et al., 2011; cited from earlier work
A. niger = details: Guarda et al., 2011; cited from earlier work
[5] = agent diluted to 10% v/v in culture medium
[6] = agent diluted to 25% v/v in culture medium

Cc1ccc(C(C)C)c(O)c1 [thymol]
Minimum inhibitory concentration (MIC) (Listeria innocua): 250 ppm | Minimum inhibitory concentration (MIC) (S. cereviciae): 125 ppm | Minimum inhibitory concentration (S. aureus [1]): 0.275 gL^−1 | Inhibition of mycelial growth versus viability control (B. cinerea mycelium; [5]): 4.7% | Radial mycelial growth area (B. cinerea mycelium; [5]): 8.1±0.1 cm^2 | Inhibition of mycelial growth versus viability control (B. cinerea mycelium; [6]): 20% | Radial mycelial growth area (B. cinerea mycelium; [6]): 6.8±0.8 cm^2 | Minimum inhibitory concentration (B. cinerea): 0.550 gL^−1 | Minimum inhibitory concentration (E. aerogenes): 0.250 gL^−1 | Minimum inhibitory concentration (L. innocua): 0.275 gL^−1 | Minimum inhibitory concentration (S. typhimurium): 0.250 gL^−1 | Minimum inhibitory concentration (P. aeruginosa): 0.225 gL^−1 | Minimum inhibitory concentration (E. coli [2]): 0.250 gL^−1 | Minimum inhibitory concentration (MIC) (S. aureus [3]): 250 ppm | Minimum inhibitory concentration (MIC) (E. coli [4]): 250 ppm | Minimum inhibitory concentration (MIC) (A. niger): 250 ppm
